Usually IC50 stands for the point on the concentration scale where inhibition reaches its midpoint. A high value points to weaker potency in that assay.

This assay addresses Acetylcholinesterase (Electrophorus electricus, UniProt O42275). Briefly: Inhibition of electric eel AChE by Ellman's method. A general note: DTNB colorimetry detects thiols as they appear.

Structures are written as SMILES. Some results are limits rather than exact numbers.

Sequence of Acetylcholinesterase (O42275 whole entry): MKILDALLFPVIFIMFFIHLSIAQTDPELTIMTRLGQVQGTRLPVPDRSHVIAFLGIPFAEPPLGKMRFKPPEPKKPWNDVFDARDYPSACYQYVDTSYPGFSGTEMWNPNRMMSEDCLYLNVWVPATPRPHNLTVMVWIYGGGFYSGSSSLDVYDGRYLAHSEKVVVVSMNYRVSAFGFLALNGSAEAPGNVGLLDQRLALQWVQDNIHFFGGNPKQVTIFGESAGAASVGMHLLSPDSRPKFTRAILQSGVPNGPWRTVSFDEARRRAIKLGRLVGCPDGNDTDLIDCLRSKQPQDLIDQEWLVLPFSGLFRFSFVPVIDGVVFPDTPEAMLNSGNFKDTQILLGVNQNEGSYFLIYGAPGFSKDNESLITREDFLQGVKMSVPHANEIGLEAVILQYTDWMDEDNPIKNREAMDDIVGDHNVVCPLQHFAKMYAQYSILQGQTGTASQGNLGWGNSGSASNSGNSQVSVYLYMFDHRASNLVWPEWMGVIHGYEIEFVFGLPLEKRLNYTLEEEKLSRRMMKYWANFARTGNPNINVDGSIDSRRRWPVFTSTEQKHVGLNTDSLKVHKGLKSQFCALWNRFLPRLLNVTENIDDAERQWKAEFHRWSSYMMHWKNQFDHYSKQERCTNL

Consider `CC[C@H]1C[C@@H]2CN3CCc4c([nH]c5ccc(O)cc45)[C@](C(=O)OC)(C2)[C@H]13`, for which half-maximal inhibition (IC50) required 29 µM. `COC(=O)[C@@]12C[C@@H]3C[C@H]([C@@H](C)O)[C@@H]1N(CCc1c2[nH]c2ccc(OC)cc12)C3` [19(R)-HEYNEANINE] registered an IC50 of 730 µM. In the case of `CC[C@H]1C[C@@H]2CN3CC[C@]4(O)C(=Nc5ccccc54)[C@](C(=O)OC)(C2)[C@H]13` [CORONARIDINE HYDROXYINDOLENINE], the IC50 was more than 1000 µM. As for `CC[C@H]1C[C@@H]2CN3CCc4c([nH]c5ccccc45)[C@](C(=O)OC)(C2)[C@H]13` [CORONARIDINE], the figure is 8.6 µM; as for `COC(=O)[C@@]12C[C@@H]3C[C@H]([C@H](C)O)[C@@H]1N(CC[C@]1(O)C2=Nc2ccccc21)C3` [HEYNEANINE HYDROXYINDOLENINE], more than 1000 µM; as for `CC[C@H]1C[C@@H]2CN3CCc4c([nH]c5ccc(OC)cc45)[C@](C(=O)OC)(C2)[C@H]13` [VOACANGINE], 4.4 µM.

With `COC(=O)[C@@]12C[C@@H]3C[C@H]([C@H](C)O)[C@@H]1N(CCc1c2[nH]c2ccc(OC)cc12)C3` [VOACRISTINE], the IC50 was determined as 420 µM. The compound `C/C=C1/CN(C)[C@H]2Cc3c([nH]c4ccccc34)C(=O)C[C@H]1[C@@H]2C(=O)OC` [VOBASINE] registered an IC50 of more than 1000 µM.

The values above are taken from ChEMBL document CHEMBL1268831, “Indole alkaloids from Ervatamia hainanensis with potent acetylcholinesterase inhibition activities” (Bioorg Med Chem Lett, 2010).
